Values of other authors, collected in PubChem BioAssay AID1259409 (Chemical Carcinogenesis Research Information System (CCRIS), 2018).

Test system: rodent chemically induced tumor inhibition, incidence and multiplicity
Assay: CCRIS tumor inhibitor studies
Settings: Route [Inhibitor]: ORAL, Species: HAMSTER, Promoter: NONE USED

## CCNC(=O)/C=C(C)/C=C/C=C(C)/C=C/C1=C(C)CCCC1(C)C
Carcinogen: N-NITROBIS(2-OXOPROPYL)AMINE, 60559-38-4, Dose [Inhibitor]: 0.5 OR 1.0 MMOL/KG DIET DAILY STARTING 1 WK AFTER CARCINOGEN TREATMENT AND CONTINUING THROUGH THE END OF THE STUDY (STUD, Strain/Sex: SYRIAN/MALE, Target Tissue: Type of Lesion: ND: TOTAL TUMOR, Dose [Carcinogen]: 40 MG/KG BW SINGLE ONCE
  tumour outcome (control, treated, inhibition, significance): 20/24 (83%), 37/40 (90%), -8%, not significant
Carcinogen: N-NITROBIS(2-OXOPROPYL)AMINE, 60559-38-4, Dose [Inhibitor]: 0.5 OR 1.0 MMOL/KG DIET DAILY STARTING 1 WK AFTER CARCINOGEN TREATMENT AND CONTINUING THROUGH THE END OF THE STUDY (STUD, Strain/Sex: SYRIAN/MALE, Target Tissue: Type of Lesion: PANCREAS: DUCTULAR ADENOMA, Dose [Carcinogen]: 10 MG/KG BW ONCE
  tumour outcome (control, treated, inhibition, significance): 3/22 (14%), 16/30 (53%), -279%, p<0.05
Carcinogen: N-NITROBIS(2-OXOPROPYL)AMINE, 60559-38-4, Dose [Inhibitor]: 0.5 OR 1.0 MMOL/KG DIET DAILY STARTING 1 WK AFTER CARCINOGEN TREATMENT AND CONTINUING THROUGH THE END OF THE STUDY (STUD, Strain/Sex: SYRIAN/MALE, Target Tissue: Type of Lesion: PANCREAS: DUCTULAR ADENOMA, Dose [Carcinogen]: 40 MG/KG BW ONCE
  tumour outcome (control, treated, inhibition, significance): 8/24 (33%), 33/40 (82%), -148%, not significant
Carcinogen: N-NITROBIS(2-OXOPROPYL)AMINE, 60559-38-4, Dose [Inhibitor]: 0.5 OR 1.0 MMOL/KG DIET DAILY STARTING 1 WK AFTER CARCINOGEN TREATMENT AND CONTINUING THROUGH THE END OF THE STUDY (STUD, Strain/Sex: SYRIAN/MALE, Target Tissue: Type of Lesion: PANCREAS: DUCTULAR CARCINOMA, Dose [Carcinogen]: 10 MG/KG BW ONCE
  tumour outcome (control, treated, inhibition, significance): 4/22 (18%), 10/30 (33%), -83%, not significant
Carcinogen: N-NITROBIS(2-OXOPROPYL)AMINE, 60559-38-4, Dose [Inhibitor]: 0.5 OR 1.0 MMOL/KG DIET DAILY STARTING 1 WK AFTER CARCINOGEN TREATMENT AND CONTINUING THROUGH THE END OF THE STUDY (STUD, Strain/Sex: SYRIAN/MALE, Target Tissue: Type of Lesion: PANCREAS: DUCTULAR CARCINOMA, Dose [Carcinogen]: 40 MG/KG BW ONCE
  tumour outcome (control, treated, inhibition, significance): 5/24 (21%), 20/40 (50%), -138%, not significant
Carcinogen: N-NITROBIS(2-OXOPROPYL)AMINE, 60559-38-4, Dose [Inhibitor]: 0.5 OR 1.0 MMOL/KG IN DIET STARTING 1 WK AFTER CARCINOGEN DOSE FOR DURATION OF STUDY (STUDY DURATION: 40 WK), Strain/Sex: SYRIAN/FEMALE, Target Tissue: Type of Lesion: LIVER: BENIGN TUMOR, Dose [Carcinogen]: 40 MG/KG BW SINGLE INJECTION
  tumour outcome (control, treated, inhibition, significance): 4/20 (20%), 17/37 (46%), -130%, not significant
Carcinogen: N-NITROBIS(2-OXOPROPYL)AMINE, 60559-38-4, Dose [Inhibitor]: 0.5 OR 1.0 MMOL/KG IN DIET STARTING 1 WK AFTER CARCINOGEN DOSE FOR DURATION OF STUDY (STUDY DURATION: 40 WK), Strain/Sex: SYRIAN/MALE, Target Tissue: Type of Lesion: LIVER: BENIGN TUMOR, Dose [Carcinogen]: 40 MG/KG BW SINGLE INJECTION
  tumour outcome (control, treated, inhibition, significance): 5/24 (21%), 25/41 (62%), -195%, p<0.05
Carcinogen: N-NITROBIS(2-OXOPROPYL)AMINE, 60559-38-4, Dose [Inhibitor]: 0.5 OR 1.0 MMOL/KG/D IN DIET STARTING 1 WK AFTER CARCINOGEN TREATMENT AND CONTINUING THROUGH THE END OF THE STUDY (STUDY, Strain/Sex: SYRIAN/FEMALE, Target Tissue: Type of Lesion: PANCREAS: DUCTULAR ADENOMA, Dose [Carcinogen]: 10 MG/KG BW ONCE
  tumour outcome (control, treated, inhibition, significance): 5/23 (23%), 13/25 (52%), -126%, not significant
Carcinogen: N-NITROBIS(2-OXOPROPYL)AMINE, 60559-38-4, Dose [Inhibitor]: 0.5 OR 1.0 MMOL/KG/D IN DIET STARTING 1 WK AFTER CARCINOGEN TREATMENT AND CONTINUING THROUGH THE END OF THE STUDY (STUDY, Strain/Sex: SYRIAN/FEMALE, Target Tissue: Type of Lesion: PANCREAS: DUCTULAR ADENOMA, Dose [Carcinogen]: 40 MG/KG BW ONCE
  tumour outcome (control, treated, inhibition, significance): 12/20 (60%), 27/37 (73%), -22%, not significant
Carcinogen: N-NITROBIS(2-OXOPROPYL)AMINE, 60559-38-4, Dose [Inhibitor]: 0.5 OR 1.0 MMOL/KG/D IN DIET STARTING 1 WK AFTER CARCINOGEN TREATMENT AND CONTINUING THROUGH THE END OF THE STUDY (STUDY, Strain/Sex: SYRIAN/FEMALE, Target Tissue: Type of Lesion: PANCREAS: DUCTULAR CARCINOMA, Dose [Carcinogen]: 10 MG/KG BW ONCE
  tumour outcome (control, treated, inhibition, significance): 6/23 (27%), 6/25 (24%), 11%, not significant
Carcinogen: N-NITROBIS(2-OXOPROPYL)AMINE, 60559-38-4, Dose [Inhibitor]: 0.5 OR 1.0 MMOL/KG/D IN DIET STARTING 1 WK AFTER CARCINOGEN TREATMENT AND CONTINUING THROUGH THE END OF THE STUDY (STUDY, Strain/Sex: SYRIAN/MALE, Target Tissue: Type of Lesion: PANCREAS: DUCTULAR ADENOMA, Dose [Carcinogen]: 10 MG/KG BW ONCE
  tumour outcome (control, treated, inhibition, significance): 3/22 (14%), 16/30 (53%), -279%, p<0.05
Carcinogen: N-NITROBIS(2-OXOPROPYL)AMINE, 60559-38-4, Dose [Inhibitor]: 0.5 OR 1.0 MMOL/KG/D IN DIET STARTING 1 WK AFTER CARCINOGEN TREATMENT AND CONTINUING THROUGH THE END OF THE STUDY (STUDY, Strain/Sex: SYRIAN/MALE, Target Tissue: Type of Lesion: PANCREAS: DUCTULAR ADENOMA, Dose [Carcinogen]: 40 MG/KG BW ONCE
  tumour outcome (control, treated, inhibition, significance): 8/24 (33%), 33/40 (82%), -148%, not significant
Carcinogen: N-NITROBIS(2-OXOPROPYL)AMINE, 60559-38-4, Dose [Inhibitor]: 0.5 OR 1.0 MMOL/KG/D IN DIET STARTING 1 WK AFTER CARCINOGEN TREATMENT AND CONTINUING THROUGH THE END OF THE STUDY (STUDY, Strain/Sex: SYRIAN/MALE, Target Tissue: Type of Lesion: PANCREAS: DUCTULAR CARCINOMA, Dose [Carcinogen]: 10 MG/KG BW ONCE
  tumour outcome (control, treated, inhibition, significance): 4/22 (18%), 10/30 (33%), -83%, not significant
Carcinogen: N-NITROBIS(2-OXOPROPYL)AMINE, 60559-38-4, Dose [Inhibitor]: 0.5 OR 1.0 MMOL/KG/D IN DIET STARTING 1 WK AFTER CARCINOGEN TREATMENT AND CONTINUING THROUGH THE END OF THE STUDY (STUDY, Strain/Sex: SYRIAN/MALE, Target Tissue: Type of Lesion: PANCREAS: DUCTULAR CARCINOMA, Dose [Carcinogen]: 40 MG/KG BW ONCE
  tumour outcome (control, treated, inhibition, significance): 5/24 (21%), 20/40 (50%), -138%, not significant
Carcinogen: N-NITROBIS(2-OXOPROPYL)AMINE, 60599-38-4, Dose [Inhibitor]: 0.5 OR 1 MMOL/KG DIET DAILY STARTING 1 WK AFTER CARCINOGEN TREATMENT AND CONTINUING THROUGH THE END OF THE STUDY (STUDY, Strain/Sex: SYRIAN/FEMALE, Target Tissue: Type of Lesion: PANCREAS: DUCTULAR CARCINOMA, Dose [Carcinogen]: 40 MG/KG BW ONCE
  tumour outcome (control, treated, inhibition, significance): 6/20 (30%), 16/37 (43%), -43%, not significant
Carcinogen: N-NITROBIS(2-OXOPROPYL)AMINE, 60599-38-4, Dose [Inhibitor]: 0.5 OR 1.0 MMOL/KG/D IN DIET STARTING 1 WK AFTER CARCINOGEN TREATMENT AND CONTINUING THROUGH THE END OF THE STUDY (STUDY, Strain/Sex: SYRIAN/FEMALE, Target Tissue: Type of Lesion: PANCREAS: DUCTULAR CARCINOMA, Dose [Carcinogen]: 40 MG/KG BW ONCE
  tumour outcome (control, treated, inhibition, significance): 6/20 (30%), 16/37 (43%), -43%, not significant
Carcinogen: N-NITROSOBIS(2-OXYPROPYL)AMINE, 60599-38-4, Dose [Inhibitor]: 0.05, 0.1 OR 0.2 MILLIMOLAR/KG DIET FOR 32 WK STARTING 1 WK AFTER THE CARCINOGEN DOSE (STUDY DURATION: 33 WK), Strain/Sex: SYRIAN/FEMALE, Target Tissue: Type of Lesion: COMMON DUCT: ADENOMA, Dose [Carcinogen]: 40 MG/KG ONCE
  tumour outcome (control, treated, inhibition, significance): 4/10 (40%), 7/26 (32%), 20%, not significant
